Test results taken from article PMC9780942, “Antimicrobial Activity and Immunomodulatory Properties of Acidocin A, the Pediocin-like Bacteriocin with the Non-Canonical Structure” (Membranes, 2022).
Positions of bridges follow the written chain, without caps; N, C: chain ends. No end group written: not given here.

Experiments:
L. lactis MK43 = assay: Antibacterial activity assay (MIC), two-fold serial dilutions in liquid medium; type: cell-based; conditions: for Minimum Inhibitory Concentration: MHB, 0.1% BSA, 37 °C, 24 h, no visible growth; for Minimum inhibitory concentration in the presence of NaCl: MHB supplemented with 0.9% NaCl
Experimental: (§1) Antibacterial activity of recombinant bacteriocins against a number of Gram-positive and Gram-negative bacteria (Table S2) was determined by the method of two-fold serial dilutions in a liquid medium. Two-fold serial dilutions of bacteriocins were prepared in sterile 96-well flat-bottom polystyrene microplates (Eppendorf, Hamburg, Germany) (Cat. No. 0030730.011) in a volume of 50 µL of sterile 0.1% bovine serum albumin (BSA) (SERVA Electrophoresis GmbH, Heidelberg, Germany) to prevent non-specific sorption of peptides to the surface of the plate wells [23]. Mid-log phase bacterial cultures were diluted with the 2x Mueller-Hinton broth (MHB) (Sigma-Aldrich, St. Louis, MO, USA) to a final cell concentration of 10^6 colony forming units (CFU) per mL. To determine the activity of bacteriocins against Listeria and Enterococci, 3% tryptic soy broth (TSB) (Merck-Millipore, Burlington, MA, USA) was used instead of MHB. Aliquots of 50 μL of diluted bacterial suspensions were added to each well of the plate, which was then incubated at 37 °C and 950 rpm for 24 h using thermostatable plate shaker PST-60HL-4 (Biosan, Riga, Latvia). As a negative control, 50 µL of the sterile growth medium (2xMHB or 6% TSB) was added to the wells containing 50 µL of 0.1% BSA. The values of the minimum inhibitory concentrations (MIC) were determined as the minimum concentration of the peptide, at which there was no visible growth of bacterial culture. Incubation for 2 h with 20 µg/mL chromogenic substrate resazurin (Sigma-Aldrich, St. Louis, MO, USA) was used to detect viable bacterial cells if they were difficult to visually detect. To study the effect of inorganic salts on the antimicrobial activity of bacteriocins, antibacterial activity assay was carried out in MHB medium supplemented with 0.9% NaCl.

[1] = tested on: P. aeruginosa MDR CI 1995; type: cell-based; conditions: MDR CI 1995, 24 h
Experimental: as §1

E. coli ATCC 25922 = type: cell-based; conditions: ATCC 25922, 24 h
Experimental: as §1

E. coli SQ110 = type: cell-based; conditions: SQ110, 24 h
Experimental: as §1

A. baumannii XDR CI 2675 = type: cell-based; conditions: XDR CI 2675, 24 h
Experimental: as §1

S. aureus 209P = type: cell-based; conditions: 24 h
Experimental: as §1

E. coli XDR CI 1057 = type: cell-based; conditions: XDR CI 1057, 24 h
Experimental: as §1

E. coli ML-35p = type: cell-based; conditions: 24 h
Experimental: as §1

M. phlei Ac-1221 = type: cell-based; conditions: 24 h
Experimental: as §1

B. subtilis B-886 = type: cell-based; conditions: B-886, 24 h
Experimental: as §1

L. lactis MK66 = type: cell-based; conditions: MK66, 24 h
Experimental: as §1

B. licheniformis B-511 = type: cell-based; conditions: 24 h
Experimental: as §1

M. luteus Ac-2229 = type: cell-based; conditions: Ac-2229, 24 h
Experimental: as §1

L. monocytogenes EGD = type: cell-based, Listeria monocytogenes; conditions: 24 h
Experimental: as §1

tested bacterial strains = assay: Antibacterial activity assay (MIC), average change over the tested strains; type: cell-based
Experimental: as §1, with “As a negative control, 50 µL of the sterile growth medium (2xMHB or 6% TSB) was added to the wells containing 50 µL of 0.1% BSA.” left out, “Incubation for 2 h with 20 µg/mL chromogenic substrate resazurin (Sigma-Aldrich, St. Louis, MO, USA) was used to detect viable bacterial cells if they were difficult to visually detect. To study the effect of inorganic salts on the antimicrobial activity of bacteriocins, antibacterial activity assay was carried out in MHB medium supplemented with 0.9% NaCl.” left out

Sequence | Minimum Inhibitory Concentration (L. lactis MK43) [µM] | Minimum Inhibitory Concentration [1] [µM] | Minimum Inhibitory Concentration (E. coli ATCC 25922) [µM] | Minimum Inhibitory Concentration (E. coli SQ110) [µM] | Minimum Inhibitory Concentration (A. baumannii XDR CI 2675) [µM] | Minimum Inhibitory Concentration (S. aureus 209P) [µM] | Minimum Inhibitory Concentration (E. coli XDR CI 1057) [µM] | Minimum Inhibitory Concentration (E. coli ML-35p) [µM] | Minimum Inhibitory Concentration (M. phlei Ac-1221) [µM] | Minimum Inhibitory Concentration (B. subtilis B-886) [µM] | Minimum Inhibitory Concentration (L. lactis MK66) [µM] | Minimum Inhibitory Concentration (B. licheniformis B-511) [µM] | Minimum Inhibitory Concentration (M. luteus Ac-2229) [µM] | Minimum Inhibitory Concentration (L. monocytogenes EGD) [µM] | Minimum inhibitory concentration in the presence of NaCl (L. lactis MK43) [µM] | Minimum inhibitory concentration in the presence of NaCl (E. coli SQ110) [µM] | Minimum inhibitory concentration in the presence of NaCl (E. coli ML-35p) [µM] | Minimum inhibitory concentration in the presence of NaCl (B. subtilis B-886) [µM] | Minimum inhibitory concentration in the presence of NaCl (L. lactis MK66) [µM] | Minimum inhibitory concentration in the presence of NaCl (B. licheniformis B-511) [µM] | other results
KTYYGNGVHCTKKSLWGKVRLKNVIPGTLCRKQSLPIKQDLKILLGWATGAFGKTFH (cysteines drawn unpaired) [AcdA(dT) (DTT reduced)] | 2 | >32 | 8 | 4 | 8 | 16 | 16 | 4 | 4 | 4 | 1 | 4 | 16 | >32 | – | – | – | – | – | – | –
KTYVGNTGYHCTKKSLWGKVRLKNVIPGTLCRKQSLPIKQDLKILLGWATGAFGKTFH (disulfide 11-31) [AcdA(x4)] | 4 | 16 | 16 | 8 | 4 | 16 | 8 | 8 | 4 | 8 | 2 | 4 | 8 | >32 | > 32 | 32 | 16 | > 32 | > 32 | > 32 | –
KTYYGNGVHSTKKSLWGKVRLKNVIPGTLSRKQSLPIKQDLKILLGWATGAFGKTFH [AcdA(dT,C11S,C31S)] | 4 | >32 | >64 | 16 | >32 | >32 | >64 | >64 | 8 | 4 | 1 | 4 | 32 | >32 | > 32 | > 32 | – | > 32 | > 32 | > 32 | –
KTYYGNGVHSTKKSLWGKVRLKNVIPGTLCRKQSLPIKQDLKILLGWATGAFGKTFH [AcdA(dT,C11S)] | 4 | >32 | 8 | 4 | 8 | 32 | 16 | 4 | 4 | 4 | 1 | 4 | 16 | >32 | > 32 | 16 | 32 | > 32 | > 32 | > 32 | Increase of MIC values on average compared to AcdA(dT) and acidocin A (tested bacterial strains): 2–4 fold
KTYYGNGVHCTKKSLWGKVRLKNVIPGTLSRKQSLPIKQDLKILLGWATGAFGKTFH [AcdA(dT,C31S)] | 2 | >32 | 8 | 8 | 16 | 32 | 16 | 8 | 4 | 4 | 1 | 4 | 16 | >32 | > 32 | 16 | 32 | > 32 | > 32 | > 32 | Increase of MIC values on average compared to AcdA(dT) and acidocin A (tested bacterial strains): 2–4 fold
